Tests used:
[1] = tested on: Q35-YFP foci; test: Q35-YFP aggregation in C. elegans strain AM140; type: in vivo, Caenorhabditis elegans
Experimental: Furthermore, we explored the role of RUN-89 in preventing huntingtin protein aggregation in C. elegans. For this AM140 strain, stably expressing aggregation-prone 35-glutamine long repeats marked with yellow fluorescence protein (Q35-YFP) were used.[82,83] A six-day treatment with 50 μM RUN-89 or a vehicle control was conducted, followed by microscopy analysis. […] These findings highlight the substantial impact of RUN-89 on foci formation or persistence, further supporting its role in suppressing pathological clustering in protein aggregation diseases or reducing stress-response assemblies.
Fig. 5 RUN-89 prevents protein aggregation and increases stress resistance in C. elegans. (A) The AM140 strain expressing aggregation-prone Q35-YFP was treated with 50 μM RUN-89 or the vehicle for 6 days, followed by microscopy analysis. Overall, 959 Q35-YFP foci (DMSO = 517; RUN-89 = 442) were identified in 102 animals (DMSO: N = 3 populations, n = 55 animals in total; RUN-89: N = 3 populations, n = 47 animals in total). The two dashed horizontal lines indicate the interquartile range, and the thick horizontal line represents the median. The Kolmogorov–Smirnov test verified a significant reduction of surface and integrated optical density of foci after RUN-89 treatment. (B) Representative images of two animals per treatment condition. Images were taken on the same day, using identical settings for the instruments used. (C) Protective effect of RUN-89 against juglone and paraquat-induced stress. A synchronized population of N2 wild-type worms was exposed to 50 μM RUN-89 for 24 hours to protect against acute oxidative stress triggered by 180 μM juglone and 200 mM paraquat. The mortality was monitored hourly over a 12 hour period. […] Results were analyzed using the Kaplan–Meier method and are presented as survival percentages with standard errors. […]
Transgenic GR2183 worms carrying the reporter gene (rpt -3p::GFP) were exposed to RUN-89 for 24 hours and for AM140 (rmIs132 [unc-54p::Q35::YFP]) to aged 6 days under treatment to establish protein aggregation model. The worms were then anesthetized with […] sodium azide and placed on glass slides with 5% agar for fluorescence microscope observation. The expression of the rpt-3p::GFP reporter in worms was directly related to the intensity of green fluorescence. Images were captured using a Zeiss Axioskop 2 Plus fluorescence microscope and a Zeiss Axio Observer A1 microscope designed for epifluorescence. Image analysis was performed to assess variations in aggregation (both the count and volume of aggregates) and fluorescence signal intensity using ImageJ software (https://imagej.nih.gov/ij/). […]

[2] = tested on: HCT116 cells expressing EGFP-HttQ74; test: PolyQ toxicity assay (EGFP-HttQ74, alamarBlue) in HCT116 WT and DDI2 KO cells; type: cell-based, human; conditions: 48 h
Experimental: Fig. 3 (A) HEK293 cells were treated with RUN compounds at a concentration of 7.5 μM for 16 hours. DMSO was used as a vehicle control. Proteasome chymotrypsin-like activity was measured in cell lysates at 37 °C. Data came from three biological replicates (n = 3). Statistical analysis was done using ratio paired t-tests corrected for multiple comparisons with Holm–Šídák's method (α = 0.05). *p < 0.05. Detailed results of the analysis are shown in SI Table S7. […] HCT116 parental cells (WT) and two independent DDI2 knockout clones (KO 04 and KO 11), in which NFE2L1 activation is impaired, were transiently transfected with plasmids encoding non-aggregating EGFP-HttQ23 or aggregation-prone EGFP-HttQ74. Cells were treated with 1 or 3 μM RUN-89 for 48 hours, and viability was measured using the alamarBlue assay. […] Data are shown as the Geomean ± GeoSD from four independent biological replicates (n = 4). Statistical analysis was performed on log2-transformed values using two-way repeated-measures ANOVA followed by Šídak's multiple comparison test. (C right) Parental SH-SY5Y cells (without α-synuclein expression) were treated in the same manner. (C left) The protective effect of RUN compounds was assessed by rotenone-induced α-synuclein proteotoxicity in SH-SY5Y cells, which mimics the PD-like phenotype. Cells were pre-treated with increasing concentrations of RUN compounds (0.312, 0.625, 1.25, and 2.5 μM) for 4 hours and then rotenone (1.125 μM) treatment was done for 24 hours.
To further evaluate the protective capacity of RUN-89 in a polyQ aggregation model, we transiently transfected HCT116 parental cells (wt) and DDI2 knockout clones (KO4 and KO11) with plasmids encoding either a non-aggregating EGFP-HttQ23 or an aggregation-prone EGFP-HttQ74 construct. This model is widely used to study Huntington's disease (HD), a prototypical polyglutamine expansion disorder caused by expanded CAG repeats in the huntingtin gene.[67–69] […] Cells were treated with increasing concentrations of RUN-89 (1 and 3 μM) for 48 h, and viability was assessed using the alamarBlue assay (Fig. 3B). […]

[3] = AM140, 50 μM, six-day treatment, versus DMSO

Question: With `COc1ccc(/C=C2\CC(NC(=O)C3CCCC3)C/C(=C\c3ccc(OC)c(OC)c3)C2=O)cc1OC` (stereo not drawn) [RUN-89] as the compound, how does the “Q35-YFP foci relative fluorescence density” value [1, 3] read?
Answer: Its value is “significant decrease”.

Question: What about the “Q35-YFP foci surface area” value [1, 3] of the same compound?
Answer: The value was “significant decrease”.

Question: What about the “Q35-YFP intensity, median” value ([1]; C. elegans, Fig. 5A, DMSO median 1.00) of the same compound?
Answer: Its value is 0.51 fold change to DMSO median.

Question: And the “Q35-YFP foci surface, median” value ([1]; C. elegans, Fig. 5A, DMSO median 20)?
Answer: The value was 17 voxels.

Question: And the “Protective effect in DDI2-deficient clones expressing HttQ74” value ([2]; 1 and 3 μM)?
Answer: Its value is “strongly reduced”.

Question: And the “Survival of wild-type cells expressing HttQ74” value ([2]; 1 and 3 μM)?
Answer: The value was “significantly improved survival”.

Question: And the “Viability of EGFP-HttQ74 cells (mean), KO 04, 1 μM” value ([2]; HCT116 DDI2-/- KO 04, 1 μM, alamarBlue)?
Answer: The value was 41.44.

Question: And the “Viability of EGFP-HttQ74 cells (mean), KO 04, 3 μM” value ([2]; HCT116 DDI2-/- KO 04, 3 μM, alamarBlue)?
Answer: Its value is 16.49.

Question: What about the “Viability of EGFP-HttQ74 cells (mean), KO 11, 1 μM” value ([2]; HCT116 DDI2-/- KO 11, 1 μM, alamarBlue) of the same compound?
Answer: Its value is 59.5.

Question: What about the “Viability of EGFP-HttQ74 cells (mean), KO 11, 3 μM” value ([2]; HCT116 DDI2-/- KO 11, 3 μM, alamarBlue) of the same compound?
Answer: The value was 37.35.

Question: What about the “Viability of EGFP-HttQ74 cells (mean), WT, 1 μM” value ([2]; HCT116 WT, 1 μM, alamarBlue) of the same compound?
Answer: Its value is 72.36.

Question: And the “Viability of EGFP-HttQ74 cells (mean), WT, 3 μM” value ([2]; HCT116 WT, 3 μM, alamarBlue)?
Answer: The value was 79.66.

Reference: paper PMC12606464, “Investigating NFE2L1 activators for targeted protein aggregate clearance: a follow-up study” (RSC Medicinal Chemistry, 2025)
